Measured values taken from US20140205586A1, “CONTROL OF BIOFILM FORMATION” (THE REGENTS OF THE UNIVERSITY OF MICHIGAN, priority 2010, published 2014).

How the values were obtained:
S. aureus = test: Biofilm formation, crystal violet staining in 96-well plates; assay type: cell-based; settings: 400 μM dATP
Description: (§1) Overnight LB-grown culture was diluted 100 times with 10% LB medium, and 100 μL of the dilution was inoculated into each well of 96-well plates. dATP, dGTP, DNase I, or apyrase was added into wells to result in the desired concentrations. An equivalent volume of 10% LB medium was added into wells as control. Plates were covered with lids and incubated at 30° C. for 16 hours before optical density (OD) was measured at 600 nm for the record of growth. Fifteen microliters of 0.1% crystal violet solution was added into each well for crystal violet staining (CV staining) After 15 min of staining, each well was washed gently three times with 100 μl of PBS buffer. Supernatant in each well was removed and 100 μl of 75% ethanol was added to dissolve crystal violet before measuring optical density at 600 nm (CV OD) for the quantification of biofilm biomass.

S. maltophilia = test: as above; assay type: cell-based; settings: 400 μM dATP
Description: as §1

[1] = test system: Acinetobacter baumannii ATCC 17978; test: Bacterial adherence assay on human bronchial epithelial NCI-H292 cells; assay type: cell-based
Description: Bacterial adherence assay was performed as described ([…]; herein incorporated by reference in its entirety). Human bronchial epithelial cell line NCI-H292 (ATCC CRL-1848; American Tissue Culture Collection, Rockville, Md., USA) were cultured in a petri dish at 37° C. in RPMI 1640 medium (Gibco BRL, Grand Island, N.Y., USA), supplemented with 25 mM HEPES, 2 mM L-glutamine, penicillin G 100,000 U/L, streptomycin 50 mg/L and 10% (v/v) of fetal bovine serum (Gibco BRL), in a humidified atmosphere containing 5% (v/v) of CO2.
When NCI-H292 cells covered about 80% of the bottom of petri dish, the medium was replaced with 0.25% trypsin-EDTA (1689649, MP Biomedicals, Solon Ohio) and the petri dish was incubated at 37° C. for 10 min. NCI-H292 Cells were collected by cell scraper and washed with fresh RPMI 1640 medium three time by centrifuging at 300×g for 3 min. Washed cells were adjusted to the concentration of 1×10^5 cells per ml with fresh RPMI 1640 and 2 ml of cell solution were transferred to each well of a 12-well plate, which contained a 13-mm-diameter plastic coverslip (Thermanox, Nunc, Rochester, N.Y., USA) in each well. The cells were incubated at 37° C. for about 3 days until cells covered about 90% of coverslip and were then washed with phosphate buffered saline (PBS) three times. Acinetobacter baumannii ATCC 17978 grown overnight in Luria Bertani (LB) medium were collected and washed three times with fresh RPMI 1640 medium by centrifuging at 6,000 rpm for 3 min. Bacterial cells were adjusted to the concentration of 1×10^8 CFU/mL (OD600=0.05) and mixed with reagents (400 μM of dATP, or 200 mU/ml of apyrase) as necessary. Each cell monolayer was infected with 1 mL of bacterial suspension and incubated for 60 min at 37° C. in a CO2 5% v/v atmosphere. For damaged cell assays, NCI-H292 cells (around 5%) in the central area of plastic coverslips were damaged by tip of a knife before the infection performed. […] The number of bacteria adhering to 100 cells was determined. […]

Acinetobacter [2] = test: Bacterial initial attachment assay; assay type: cell-based; settings: 125 μM dATP; visualized at 2 h, 4 h and 8 h post-treatment
Description: Bacterial initial attachment assay: 1% of an overnight culture was inoculated into the wells of 96-well glass bottom microplate containing 100 μl of 10% LB media, after predetermined incubation time, suspension was removed from each well and rinsed with PBS buffer for three times then biofilm samples were stained with LIVE/DEAD BacLight Bacterial Viability Kits (cat. L7007, Invitrogen) following the instructions in the manual. All microscopic observations and image acquisitions were performed with Olympus IX71 equipped with detectors and filter sets for monitoring of SYTO-9 and propidium iodide (PI). Images were obtained using a 60× objective.

E. coli = test: Biofilm formation, crystal violet staining in 96-well plates; assay type: cell-based; settings: 400 μM dATP
Description: as §1
(§2) For visualization of biofilm structure (FIG. 2), biofilms were developed as described above. After 16 hours of incubation, supernatant was removed from each well and 100 μl of PBS buffer containing 0.1 mM SYTO-9 green, 10 mM Propidium Iodide (PI) was added for staining in dark for 15 min. Cell images were acquired with a Perkin Elmer UltraView confocal microscope system equipped with an Argon-Krypton laser. Images were taken with an oil immersion 60× objective lens in two channels (488 nm excitation for SYTO9 and 568 nm excitation for PI). […]

Acinetobacter [3] = test: Extracellular DNA (eDNA) extraction and quantification; assay type: cell-based
Description: DNA extraction and quantification: Biofilms were developed as mentioned above for 16 hours and biofilm cells were resuspended with 0.9% NaCl solution, homogenized for 1 min and utilized for eDNA extraction. Planktonic cells were incubated at 30° C. for 8 hours with a 1% of inoculation and cells were washed with fresh 10% of LB broth three times before resuspension in the same volume of 10% of LB broth or 10% LB broth supplemented with 400 μM of dATP. The cells solutions were then incubated at 30° C. for another 2 hour and were ready for eDNA extraction. Biofilm cells suspension and planktonic cultures were treated as previously reported (27) for DNA extraction. Briefly, cell solution was treated with Dispersin B (20 μg/ml) at 37° C. for 30 min followed by treatment of proteinase K (5 μg/ml) for another 30 min at 37° C. Treated cell solution was filtered through a 0.2 μm syringe filter (PES, Water & Process Technologies), elute was used to extract the extracellular DNA by using ethanol precipitation. DNA was dissolved in 50 μl of sterile MilliQ water and the concentration of DNA was measured by using the PicoGreen dsDNA Quantitation Kit (Molecular Probes, Invitrogen).

Acinetobacter biofilms = test: Biofilm biomass, crystal violet staining in 96-well plates; assay type: cell-based; settings: 16 hours incubation
Description: as §1, §2

Acinetobacter cultures = test: CytoTox-Glo cytotoxicity assay (programmed cell death); assay type: cell-based; settings: 24 h post-treatment
Excerpt: Cytotoxicity Assay: Planktonic cells and biofilm cells were collected as described above and washed with PBS buffer three times. Cell concentration was adjusted to 1-1.5×10^8 CFU/ml with PBS buffer and samples were ready for dead-cell protease activity, which had been released from cells that had lost membrane integrity, by using CytoTox-Glo™ Cytotoxicity Assay (Cat. G9291. Promega. Madison, Wis.) following the instructions by the manufacturer.

Acinetobacter baumannii = Acinetobacter baumannii adherence in mouse wound infection model; assay type: in vivo, C57BL/6 mice; settings: burn wound sites treated with 400 mU/mL apyrase during inoculation
Description: Female pathogen-free C57BL/6 mice (Harlan, Indianapolis, Ind.), 12 weeks old, weighing approximately 20-23 grams were used in all experiments. Mice were housed in standard cages at the University Laboratory Animals Facility and were allowed to acclimate for 7 days after delivery prior to the experiment. The animals were kept on a 12 hour light cycle and were provided with rodent chow (LabDiet 5001, PMI Int'l., Richmond, Ind.) and water ad libitum throughout the study.
Pentobarbital (Nembutal, Ovation Pharmaceuticals, Inc., Deerfield, Ill., manufactured by Hospira, Lake Forest, Ill.) was administered intraperatonially (50 mg/kg IP) for anesthesia. During the study, all mice were singly housed and all received 0.1 mg/kg buprenorphine (Buprenex; Reckitt Benckiser Pharmaceuticals Inc., Richmond, Va.) subcutaneously (SQ) twice daily for post-burn pain control.
The skin over the lumbrosacral and back region was clipped using a 35-W model 5-55E electrical clipper (Oyster-Golden A-S, Head no. 80, blade size 40). Depilatory cream (Nair® lotion) was applied for about 1.5 minutes, then wiped off with a damp paper towel. Skin was rinsed under the faucet in lukewarm water and then blotted dry.
The first buprenorphine dose (67 ul/20 g, 83 ul/25 g mouse or 0.1 ug/g) was administered SQ under the skin of the upper back.
All 8 mice were burned. […]

| Compound | biofilm formation (S. aureus) | biofilm formation (S. maltophilia) | aggregate formation on human bronchial epithelial cells ([1]; 400 μM dATP in media) | increase of A. baumannii adherence to human bronchial epithelial cells ([1]; 400 μM dATP in media, 1 hour after incubation) | rates of attachment in initial biofilm formation (Acinetobacter [2]) | biofilm formation (E. coli) | extracellular DNA (eDNA) release (Acinetobacter [3]; biofilm cultures, more pronounced effect than in planktonic) | extracellular DNA (eDNA) release (Acinetobacter [3]; planktonic cultures) | biofilm biomass (Acinetobacter biofilms) | programmed cell death (Cytotox-glo) (Acinetobacter cultures; biofilm form) | programmed cell death (Cytotox-glo) (Acinetobacter cultures; planktonic form) | effect on increased bacterial adherence (dATP or damaged cells) ([1]; Apyrase 200 mU/ml) | adherence during initial stages of biofilm formation, cell count per gram of skin tissue (Acinetobacter baumannii) |
| --- | --- | --- | --- | --- | --- | --- | --- | --- | --- | --- | --- | --- | --- |
| Nc1ncnc2c1ncn2[C@H]1C[C@H](O)[C@@H](COP(=O)(O)OP(=O)(O)OP(=O)(O)O)O1 [dATP, deoxyadenosine triphosphate] | increased biofilm formation | increased biofilm formation | promoted aggregate formation | about 100 fold | accelerated rates of attachment | increased biofilm formation | Stimulation of extracellular DNA (eDNA) | Stimulation of extracellular DNA (eDNA) | stimulated biofilm biomass | increased levels of programmed cell death | increased levels of programmed cell death | – | – |
| apyrase | – | – | – | – | – | – | – | – | reduced biomass | – | – | completely arrested | decreased adherence |
